# In paper PMC5218480 (PLoS ONE, 2017):
# Test system: MV-4-11 cells
# Assay: Gene expression microarray analysis (Affymetrix PrimeView) and GSEA
# Format: cell-based, human
# Set-up: RFU PODN (11730768_x_at) / Fold change /veh PODN (11730768_x_at) / RFU LINC00158 (11744669_a_at) / Fold change /veh LINC00158 (11744669_a_at) / RFU DUSP10 (11751237_a_at) / Fold change /veh DUSP10 (11751237_a_at) / RFU ID3 (11757404_x_at) / Fold change /veh ID3 (11757404_x_at) / RFU PLEKHG5 (11737974_s_at) / Fold change /veh PLEKHG5 (11737974_s_at) / RFU LRRC4B (11730491_at) / Fold change /veh LRRC4B (11730491_at) / RFU GIMAP4 (11747438_a_at) / Fold change /veh GIMAP4 (11747438_a_at) / RFU KRT8 (11758183_x_at) / Fold change /veh KRT8 (11758183_x_at) / RFU CNN1 (11734310_a_at) / Fold change /veh CNN1 (11734310_a_at) / RFU VPS37D (11726825_at) / Fold change /veh VPS37D (11726825_at) / RFU C10orf10 (11716522_x_at) / Fold change /veh C10orf10 (11716522_x_at) / RFU KIR2DL2 /// KIR2DL4 /// KIR2DL5A /// KIR2DL5B /// KIR2DS1 /// KIR2DS2 /// KIR2DS3 /// KIR2DS4 /// KIR3DL3 /// KIR3DL3 /// KIR3DS1 (11738374_at) / Fold change /veh KIR2DL2 /// KIR2DL4 /// KIR2DL5A /// KIR2DL5B /// KIR2DS1 /// KIR2DS2 /// KIR2DS3 /// KIR2DS4 /// KIR3DL3 /// KIR3DL3 /// KIR3DS1 (11738374_at) / RFU C1QL1 (11718748_at) / Fold change /veh C1QL1 (11718748_at) / RFU TMPRSS4 (11747572_a_at) / Fold change /veh TMPRSS4 (11747572_a_at) / RFU HAMP (11756126_x_at) / Fold change /veh HAMP (11756126_x_at) / RFU RNFT2 (11725882_a_at) / Fold change /veh RNFT2 (11725882_a_at) / RFU NR4A2 (11747474_a_at) / Fold change /veh NR4A2 (11747474_a_at) / RFU ABCC12 (11746883_a_at) / Fold change /veh ABCC12 (11746883_a_at) / RFU TMEM136 (11760407_x_at) / Fold change /veh TMEM136 (11760407_x_at) / RFU CLDN22 /// WWC2 (11732394_at) / Fold change /veh CLDN22 /// WWC2 (11732394_at) / RFU HLA-DPB1 (11760878_x_at) / Fold change /veh HLA-DPB1 (11760878_x_at) / RFU SPINT1 (11716480_a_at) / Fold change /veh SPINT1 (11716480_a_at) / RFU GAP43 (11754022_s_at) / Fold change /veh GAP43 (11754022_s_at) / RFU A4GNT (11735810_at) / Fold change /veh A4GNT (11735810_at) / RFU PRB3 (11715151_x_at) / Fold change /veh PRB3 (11715151_x_at) / RFU TUBB4B (11761932_at) / Fold change /veh TUBB4B (11761932_at) / RFU CAPN14 (11732068_a_at) / Fold change /veh CAPN14 (11732068_a_at) / RFU TMCC2 (11721928_a_at) / Fold change /veh TMCC2 (11721928_a_at) / RFU IRGQ (11745062_a_at) / Fold change /veh IRGQ (11745062_a_at) / RFU FAM174B (11720279_a_at) / Fold change /veh FAM174B (11720279_a_at) / RFU TMPRSS4 (11748680_a_at) / Fold change /veh TMPRSS4 (11748680_a_at) / RFU FAM212B (11763350_a_at) / Fold change /veh FAM212B (11763350_a_at) / RFU PLEKHG5 (11743358_a_at) / Fold change /veh PLEKHG5 (11743358_a_at) / RFU ZSCAN30 (11745921_a_at) / Fold change /veh ZSCAN30 (11745921_a_at) / RFU CMKLR1 (11741424_a_at) / Fold change /veh CMKLR1 (11741424_a_at) / RFU LOC101060620 /// MAPK8IP1 (11723275_at) / Fold change /veh LOC101060620 /// MAPK8IP1 (11723275_at) / RFU SPTSSB (11747773_x_at) / Fold change /veh SPTSSB (11747773_x_at) / RFU PRSS12 (11739890_at) / Fold change /veh PRSS12 (11739890_at) / RFU BIN1 (11741810_x_at) / Fold change /veh BIN1 (11741810_x_at) / RFU WNT11 (11732464_a_at) / Fold change /veh WNT11 (11732464_a_at) / RFU C10orf10 (11716521_a_at) / Fold change /veh C10orf10 (11716521_a_at) / RFU C5orf56 (11738089_at) / Fold change /veh C5orf56 (11738089_at) / RFU CYB561 (11721691_x_at) / Fold change /veh CYB561 (11721691_x_at) / RFU ANKRD19P (11752326_a_at) / Fold change /veh ANKRD19P (11752326_a_at) / RFU OR2T12 /// OR2T33 /// OR2T8 (11738714_s_at) / Fold change /veh OR2T12 /// OR2T33 /// OR2T8 (11738714_s_at) / RFU VCAN (11748164_a_at) / Fold change /veh VCAN (11748164_a_at) / RFU JSRP1 (11732532_at) / Fold change /veh JSRP1 (11732532_at) / RFU KRTAP10-11 (11738290_x_at) / Fold change /veh KRTAP10-11 (11738290_x_at) / RFU MYO3A (11730013_a_at) / Fold change /veh MYO3A (11730013_a_at) / RFU EBF3 (11725865_a_at) / Fold change /veh EBF3 (11725865_a_at) / RFU CAMK2N1 (11719241_x_at) / Fold change /veh CAMK2N1 (11719241_x_at) / RFU C5orf56 (11738088_a_at) / Fold change /veh C5orf56 (11738088_a_at) / RFU OLFML3 (11715873_a_at) / Fold change /veh OLFML3 (11715873_a_at) / RFU LOC100653217 /// NTM (11731650_a_at) / Fold change /veh LOC100653217 /// NTM (11731650_a_at) / RFU MAPK11 (11762145_a_at) / Fold change /veh MAPK11 (11762145_a_at) / RFU FIZ1 (11724087_x_at) / Fold change /veh FIZ1 (11724087_x_at) / RFU OASL (11726364_x_at) / Fold change /veh OASL (11726364_x_at) / RFU SOX15 (11748057_x_at) / Fold change /veh SOX15 (11748057_x_at) / RFU CD79A (11719716_a_at) / Fold change /veh CD79A (11719716_a_at) / RFU HIST1H1D (11736915_at) / Fold change /veh HIST1H1D (11736915_at) / RFU CASKIN2 (11723855_a_at) / Fold change /veh CASKIN2 (11723855_a_at) / RFU LOC730098 (11760151_x_at) / Fold change /veh LOC730098 (11760151_x_at) / RFU OR4N2 (11742367_at) / Fold change /veh OR4N2 (11742367_at) / RFU PRRT2 (11749266_a_at) / Fold change /veh PRRT2 (11749266_a_at) / RFU SNX32 (11753110_a_at) / Fold change /veh SNX32 (11753110_a_at) / RFU CDHR5 (11726645_a_at) / Fold change /veh CDHR5 (11726645_a_at) / RFU RCAN1 (11760418_a_at) / Fold change /veh RCAN1 (11760418_a_at) / RFU FAM167A (11723789_a_at) / Fold change /veh FAM167A (11723789_a_at) / RFU FAM26E (11764081_at) / Fold change /veh FAM26E (11764081_at) / RFU ISYNA1 (11749810_s_at) / Fold change /veh ISYNA1 (11749810_s_at) / RFU ACY1 (11761880_at) / Fold change /veh ACY1 (11761880_at) / RFU 11764098_at / Fold change /veh 11764098_at / RFU SAMD14 (11745864_x_at) / Fold change /veh SAMD14 (11745864_x_at) / RFU NPB (11741838_a_at) / Fold change /veh NPB (11741838_a_at) / RFU TMPRSS6 (11731388_a_at) / Fold change /veh TMPRSS6 (11731388_a_at) / RFU KRTAP10-2 (11738614_at) / Fold change /veh KRTAP10-2 (11738614_at) / RFU ARHGAP8 /// PRR5-ARHGAP8 (11727945_x_at) / Fold change /veh ARHGAP8 /// PRR5-ARHGAP8 (11727945_x_at) / RFU KRTAP5-7 /// NADSYN1 (11734609_at) / Fold change /veh KRTAP5-7 /// NADSYN1 (11734609_at) / RFU RASL12 (11751679_a_at) / Fold change /veh RASL12 (11751679_a_at) / RFU CDKN2B (11736163_a_at) / Fold change /veh CDKN2B (11736163_a_at) / RFU PRF1 (11729649_at) / Fold change /veh PRF1 (11729649_at) / RFU, ZNF638 /// ZNF638-IT1 / Fold change vs veh, ZNF638 /// ZNF638-IT1 / RFU, PANK3 / Fold change vs veh, PANK3 / RFU, SH3YL1 / Fold change vs veh, SH3YL1 / RFU, ZEB2 / Fold change vs veh, ZEB2 / RFU, NRIP1 / Fold change vs veh, NRIP1 / RFU, PTTG1IP / Fold change vs veh, PTTG1IP / RFU, CAPN2 / Fold change vs veh, CAPN2 / RFU, MED14 / Fold change vs veh, MED14 / RFU, SNORA58 / Fold change vs veh, SNORA58 / RFU, C1orf63 / Fold change vs veh, C1orf63 / RFU, LRRFIP1 / Fold change vs veh, LRRFIP1 / RFU, NDUFAF7 / Fold change vs veh, NDUFAF7 / RFU, SLC12A2 / Fold change vs veh, SLC12A2 / RFU, IBTK / Fold change vs veh, IBTK / RFU, ESF1 / Fold change vs veh, ESF1 / Fold change vs veh, TMEM50B / RFU, TAOK1 / Fold change vs veh, TAOK1 / RFU, ACBD3 / Fold change vs veh, ACBD3 / RFU, TMA16 / Fold change vs veh, TMA16 / RFU, RWDD3 / Fold change vs veh, RWDD3 / RFU, BCAT1 / Fold change vs veh, BCAT1 / RFU, EDEM3 / Fold change vs veh, EDEM3 / RFU, TMEM33 / Fold change vs veh, TMEM33 / RFU, WDR75 / Fold change vs veh, WDR75 / RFU, AHCTF1 / Fold change vs veh, AHCTF1 / RFU, TFRC / Fold change vs veh, TFRC / RFU, ZDHHC17 / Fold change vs veh, ZDHHC17 / RFU, NOM1 / Fold change vs veh, NOM1 / RFU, ARL8B / Fold change vs veh, ARL8B / RFU, ZBTB11 / Fold change vs veh, ZBTB11 / RFU, TAMM41 / Fold change vs veh, TAMM41 / RFU, KIAA1704 /// LOC100996395 / Fold change vs veh, KIAA1704 /// LOC100996395 / RFU, ING1 / Fold change vs veh, ING1 / RFU, TRMT61B / Fold change vs veh, TRMT61B / RFU, FUBP3 / Fold change vs veh, FUBP3 / RFU, TP53 / Fold change vs veh, TP53 / RFU, TNKS2 / Fold change vs veh, TNKS2 / RFU, ZFP14 / Fold change vs veh, ZFP14 / RFU, ACTR2 / Fold change vs veh, ACTR2 / RFU, PPP3R1 / Fold change vs veh, PPP3R1 / RFU, PIK3R1 / Fold change vs veh, PIK3R1 / RFU, HNRNPA1 / Fold change vs veh, HNRNPA1 / RFU, RNF170 / Fold change vs veh, RNF170 / RFU, ZNF28 / Fold change vs veh, ZNF28 / RFU, RNGTT / Fold change vs veh, RNGTT / RFU, OGT / Fold change vs veh, OGT / RFU, BRD1 / Fold change vs veh, BRD1 / RFU, MARS / Fold change vs veh, MARS / RFU, ZNF655 / Fold change vs veh, ZNF655 / RFU, FAHD1 / Fold change vs veh, FAHD1 / RFU, BDP1 / Fold change vs veh, BDP1 / RFU, LRRCC1 / Fold change vs veh, LRRCC1 / RFU, ARID1A / Fold change vs veh, ARID1A / RFU, ZNF146 / Fold change vs veh, ZNF146 / RFU, ZNF330 / Fold change vs veh, ZNF330 / RFU, GPN3 / Fold change vs veh, GPN3 / RFU, C9orf123 / Fold change vs veh, C9orf123 / RFU, N4BP2L2 / Fold change vs veh, N4BP2L2 / RFU, ARFIP1 / Fold change vs veh, ARFIP1 / RFU, FAM179B / Fold change vs veh, FAM179B / RFU, BCL10 / Fold change vs veh, BCL10 / RFU, UHRF1BP1L / Fold change vs veh, UHRF1BP1L / RFU, BET1 / Fold change vs veh, BET1 / RFU, CNOT2 / Fold change vs veh, CNOT2 / RFU, ZNF268 / Fold change vs veh, ZNF268 / Fold change vs veh, ZNF507 / RFU, DGCR2 / Fold change vs veh, DGCR2 / RFU, WDSUB1 / Fold change vs veh, WDSUB1 / Fold change vs veh, HSP90B1 /// MIR3652 / RFU, ADSS / Fold change vs veh, ADSS / RFU, GK / Fold change vs veh, GK / RFU, ZNF148 / Fold change vs veh, ZNF148 / RFU, TAF9 / Fold change vs veh, TAF9 / RFU, SLC1A5 / Fold change vs veh, SLC1A5 / RFU, SLMO2 / Fold change vs veh, SLMO2 / RFU, ABCC4 / Fold change vs veh, ABCC4 / RFU, LOC101060439 /// RAP1B / Fold change vs veh, LOC101060439 /// RAP1B / RFU, RFX7 / Fold change vs veh, RFX7 / RFU, GTPBP10 / Fold change vs veh, GTPBP10 / RFU, CNEP1R1 / Fold change vs veh, CNEP1R1 / RFU, BIVM-ERCC5 /// ERCC5 / Fold change vs veh, BIVM-ERCC5 /// ERCC5 / RFU, ILF3 / Fold change vs veh, ILF3 / RFU 11762660_at / Fold change /veh 11762660_at / RFU VCAN (11757783_s_at) / Fold change /veh VCAN (11757783_s_at) / RFU DDX43 (11728927_at) / Fold change /veh DDX43 (11728927_at) / RFU KRT8 (11758188_x_at) / Fold change /veh KRT8 (11758188_x_at) / RFU NKD1 (11759106_at) / Fold change /veh NKD1 (11759106_at) / RFU SRD5A1 (11742802_a_at) / Fold change /veh SRD5A1 (11742802_a_at) / RFU TPSAB1 /// TPSB2 (11721975_s_at) / Fold change /veh TPSAB1 /// TPSB2 (11721975_s_at) / RFU GSTM3 (11746129_a_at) / Fold change /veh GSTM3 (11746129_a_at) / RFU IL23R (11737362_x_at) / Fold change /veh IL23R (11737362_x_at) / RFU TMEM51 (11727254_a_at) / Fold change /veh TMEM51 (11727254_a_at) / RFU PIWIL2 (11732686_x_at) / Fold change /veh PIWIL2 (11732686_x_at) / RFU ORM1 (11744905_x_at) / Fold change /veh ORM1 (11744905_x_at) / RFU CCDC152 (11743942_at) / Fold change /veh CCDC152 (11743942_at) / RFU ECM1 (11717891_a_at) / Fold change /veh ECM1 (11717891_a_at) / RFU IL23R (11748794_a_at) / Fold change /veh IL23R (11748794_a_at) / RFU TNFAIP8L3 (11732012_x_at) / Fold change /veh TNFAIP8L3 (11732012_x_at) / RFU MBOAT4 (11741988_at) / Fold change /veh MBOAT4 (11741988_at) / RFU 11764193_at / Fold change /veh 11764193_at / RFU TMEM53 (11763286_at) / Fold change /veh TMEM53 (11763286_at) / RFU MAGEB2 (11727129_at) / Fold change /veh MAGEB2 (11727129_at) / RFU TMEM200A (11744735_a_at) / Fold change /veh TMEM200A (11744735_a_at) / RFU CCDC152 (11751479_a_at) / Fold change /veh CCDC152 (11751479_a_at) / RFU FAM211A (11726209_a_at) / Fold change /veh FAM211A (11726209_a_at) / RFU RGS16 (11746705_a_at) / Fold change /veh RGS16 (11746705_a_at) / RFU VCAN (11755009_s_at) / Fold change /veh VCAN (11755009_s_at) / RFU RHOB (11743442_s_at) / Fold change /veh RHOB (11743442_s_at) / RFU RGS16 (11720943_a_at) / Fold change /veh RGS16 (11720943_a_at) / RFU RGS16 (11720944_at) / Fold change /veh RGS16 (11720944_at) / RFU, VPS4B / Fold change vs veh, VPS4B / RFU, CREB1 / Fold change vs veh, CREB1 / RFU, DNAJC13 / Fold change vs veh, DNAJC13 / RFU, GNAQ / Fold change vs veh, GNAQ / RFU, CDK5R1 / Fold change vs veh, CDK5R1 / RFU, ZRANB3 / Fold change vs veh, ZRANB3 / RFU, CUL4A / Fold change vs veh, CUL4A / RFU, CCNY / Fold change vs veh, CCNY / RFU, UFL1 / Fold change vs veh, UFL1 / RFU, COG3 / Fold change vs veh, COG3 / RFU, DIAPH2 / Fold change vs veh, DIAPH2 / RFU, SKA2 / Fold change vs veh, SKA2 / RFU, AFF3 / Fold change vs veh, AFF3 / RFU, LMF1 / Fold change vs veh, LMF1 / RFU, IPO11 / Fold change vs veh, IPO11 / RFU, DFFB / Fold change vs veh, DFFB / RFU, FOXP1 / Fold change vs veh, FOXP1 / RFU, CARD8 / Fold change vs veh, CARD8 / RFU, STRN3 / Fold change vs veh, STRN3 / RFU, ADK / Fold change vs veh, ADK / RFU, RASSF2 / Fold change vs veh, RASSF2 / RFU, WIPF1 / Fold change vs veh, WIPF1 / RFU, LARP1B / Fold change vs veh, LARP1B / RFU, RASA1 / Fold change vs veh, RASA1 / RFU, RB1 / Fold change vs veh, RB1 / RFU, PPFIA1 / Fold change vs veh, PPFIA1 / RFU, MAT2A / Fold change vs veh, MAT2A / RFU, CCT5 / Fold change vs veh, CCT5 / RFU, WDR92 / Fold change vs veh, WDR92 / RFU, CUX1 / Fold change vs veh, CUX1 / RFU, TTC7A / Fold change vs veh, TTC7A / RFU, TMEM135 / Fold change vs veh, TMEM135 / RFU, DEPTOR / Fold change vs veh, DEPTOR / RFU, CPM / Fold change vs veh, CPM / RFU, DNAJB6 / Fold change vs veh, DNAJB6 / RFU, CACNA2D3 / Fold change vs veh, CACNA2D3 / RFU, DTX4 / Fold change vs veh, DTX4 / RFU, TFCP2 / Fold change vs veh, TFCP2 / RFU, GMCL1 /// GMCL1P1 / Fold change vs veh, GMCL1 /// GMCL1P1 / RFU, AEBP2 / Fold change vs veh, AEBP2 / RFU, SNHG1 /// SNORD22 /// SNORD25 /// SNORD26 /// SNORD27 /// SNORD28 /// SNORD29 /// SNORD31 / Fold change vs veh, SNHG1 /// SNORD22 /// SNORD25 /// SNORD26 /// SNORD27 /// SNORD28 /// SNORD29 /// SNORD31 / Fold change (Aza/veh), C12orf56 (ProbeSet 11735607_a_at) / Fold change (ACY-1035/veh), C12orf56 (ProbeSet 11735607_a_at) / Fold change (Aza/veh), FGFR1OP (ProbeSet 11751329_s_at) / Fold change (ACY-1035/veh), FGFR1OP (ProbeSet 11751329_s_at) / Fold change (Aza/veh), VPS36 (ProbeSet 11739960_a_at) / Fold change (ACY-1035/veh), VPS36 (ProbeSet 11739960_a_at) / RFU SYPL1 (11715823_x_at) / Fold change /veh SYPL1 (11715823_x_at) / RFU IGFBP7 (11715501_s_at) / Fold change /veh IGFBP7 (11715501_s_at) / RFU REEP3 (11722064_at) / Fold change /veh REEP3 (11722064_at) / RFU IGLL1 (11728026_x_at) / Fold change /veh IGLL1 (11728026_x_at): dose or concentration left out as unconfirmed
# Settings: MV-4-11 cells, 48 hours
smiles,measurement,value
Nc1ccc(-c2cccs2)cc1NC(=O)c1ccc2c(c1)cc(C1CC1)n2CCN1CCOCC1 [ACY-1035],Fold change /veh GIMAP4 (11747438_a_at),1.02
